Source: ChEMBL document CHEMBL2440029, “Discovery and characterization of NVP-QAV680, a potent and selective CRTh2 receptor antagonist suitable for clinical testing in allergic diseases” (Bioorg Med Chem, 2013)
Converted amounts (≈) assume the structure as drawn. The source made the active and inactive calls. The rule behind the calls is not given here.

How the values were obtained:
[1] = molecular target: T1, Prostaglandin D2 receptor 2 (Homo sapiens, UniProt Q9Y5Y4); assay: Displacement of [3H]-prostaglandin D2 from human CRTh2 receptor expressed in CHO cells after 2 hrs; type: cell-based
T1 sequence (Q9Y5Y4 whole entry): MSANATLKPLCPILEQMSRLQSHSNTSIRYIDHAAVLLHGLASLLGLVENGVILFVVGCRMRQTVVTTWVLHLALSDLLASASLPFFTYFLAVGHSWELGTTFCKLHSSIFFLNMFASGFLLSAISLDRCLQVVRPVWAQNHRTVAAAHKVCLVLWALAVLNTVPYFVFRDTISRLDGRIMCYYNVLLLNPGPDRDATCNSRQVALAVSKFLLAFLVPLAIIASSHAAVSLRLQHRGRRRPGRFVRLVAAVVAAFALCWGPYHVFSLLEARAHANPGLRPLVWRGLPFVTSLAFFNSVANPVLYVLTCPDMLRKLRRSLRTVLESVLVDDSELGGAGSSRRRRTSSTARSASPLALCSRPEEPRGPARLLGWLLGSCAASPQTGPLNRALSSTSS

[2] = molecular target: T2, Prostaglandin D2 receptor 2 (Homo sapiens) (UniProt Q9Y5Y4); assay: Antagonist activity at human CRTh2 receptor expressed in CHO cells assessed as inhibition of prostaglandin D2 and forskolin-induced cAMP accumulation after 45 mins in presence of 0.1% HSA; type: functional, cell-based
T2 sequence (whole entry): T1 sequence (Q9Y5Y4 whole entry)

[3] = molecular target: T3, Prostaglandin D2 receptor 2 (Mus musculus, UniProt Q9Z2J6); assay: Antagonist activity at mouse CRTh2 receptor expressed in CHO-K1 cells assessed as inhibition of […]-GTP-gamma-S binding after 50 mins by liquid scintillation counting; type: functional, cell-based
[4] = Oral bioavailability in Wistar rat at 100 mg/kg; type: ADME, organism-based; conditions: in vivo
[5] = molecular target: T3, Prostaglandin D2 receptor 2; assay: Displacement of [3H]-prostaglandin D2 from mouse CRTh2 receptor expressed in CHO cells after 2 hrs; type: cell-based
[6] = AUC (0 to 48 hrs) in Wistar rat at 100 mg/kg, po; type: ADME, organism-based; set-up: time < 48 hr, dose 100 mg/kg, route oral; conditions: plasma
[7] = Oral bioavailability in Wistar rat at 3 mg/kg; type: ADME, organism-based; conditions: in vivo
[8] = AUC (0 to 48 hrs) in Wistar rat at 3 mg/kg, po; type: ADME, organism-based; set-up: time < 48 hr, dose 3 mg/kg, route oral; conditions: plasma
[9] = Tmax in Wistar rat at 3 mg/kg, po; type: ADME, organism-based; set-up: dose 3 mg/kg, route oral; conditions: in vivo
[10] = Tmax in Wistar rat at 100 mg/kg, po; type: ADME, organism-based; set-up: dose 100 mg/kg, route oral; conditions: in vivo
[11] = Cmax in Wistar rat at 3 mg/kg, po; type: ADME, organism-based; set-up: dose 3 mg/kg, route oral; conditions: in vivo
[12] = Cmax in Wistar rat at 100 mg/kg, po; type: ADME, organism-based; set-up: dose 100 mg/kg, route oral; conditions: in vivo
[13] = Volume of distribution at steady state in Wistar rat at 0.5 mg/kg, iv; type: ADME, organism-based; set-up: dose 0.5 mg/kg, route intravenous; conditions: in vivo, read-out: Vdss
[14] = Terminal half life in Wistar rat at 0.5 mg/kg, iv; type: ADME, organism-based; set-up: dose 0.5 mg/kg, route intravenous; conditions: in vivo, read-out: beta t1/2 (converted)
[15] = Solubility of the compound at pH 6.8; type: physicochemical; conditions: buffer
[16] = Clearance in Wistar rat at 0.5 mg/kg, iv; type: ADME, organism-based; set-up: dose 0.5 mg/kg, route intravenous; conditions: in vivo
[17] = Apparent permeability from apical to basolateral side in human Caco2 cells; type: ADME, cell-based; conditions: Caco-2
[18] = Apparent permeability from basolateral to apical side in human Caco2 cells; type: ADME, cell-based; conditions: Caco-2
[19] = molecular target: T1, Prostaglandin D2 receptor 2; assay: Antagonist activity at human CRTh2 receptor expressed in CHO cells assessed as inhibition of prostaglandin D2 and forskolin-induced cAMP accumulation after 45 mins; type: functional, cell-based
[20] = Cmax in Balb/c mouse at 5 mg/kg, po; type: ADME, organism-based; set-up: dose 5 mg/kg, route oral; conditions: in vivo
[21] = molecular target: Polyunsaturated fatty acid 5-lipoxygenase (Homo sapiens) (UniProt P09917); assay: Inhibition of human 5-lipoxygenase at 10 uM
[22] = molecular target: Prostaglandin G/H synthase 1 (Homo sapiens) (UniProt P23219); assay: Inhibition of human COX1 at 10 uM
[23] = molecular target: T4, Prostaglandin G/H synthase 2 (Homo sapiens) (UniProt P35354); assay: Inhibition of human COX2 at 10 uM
T4 sequence (whole entry): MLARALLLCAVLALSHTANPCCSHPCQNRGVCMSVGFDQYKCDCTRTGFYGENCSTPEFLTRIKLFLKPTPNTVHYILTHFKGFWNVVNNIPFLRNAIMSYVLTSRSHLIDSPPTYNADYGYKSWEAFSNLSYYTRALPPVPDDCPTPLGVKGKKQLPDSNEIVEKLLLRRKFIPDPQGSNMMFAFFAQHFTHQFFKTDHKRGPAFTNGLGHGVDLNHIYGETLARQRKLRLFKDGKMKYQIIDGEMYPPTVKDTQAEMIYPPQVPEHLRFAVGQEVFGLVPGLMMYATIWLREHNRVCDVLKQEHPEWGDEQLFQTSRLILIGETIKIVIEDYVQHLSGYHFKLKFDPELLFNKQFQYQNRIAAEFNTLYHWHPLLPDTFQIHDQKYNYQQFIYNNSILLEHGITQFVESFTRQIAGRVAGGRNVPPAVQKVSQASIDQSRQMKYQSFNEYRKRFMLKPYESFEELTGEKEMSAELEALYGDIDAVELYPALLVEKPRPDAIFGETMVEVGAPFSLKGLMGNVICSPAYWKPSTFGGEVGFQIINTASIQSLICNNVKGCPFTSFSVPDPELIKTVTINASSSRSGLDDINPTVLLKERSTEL

[24] = molecular target: Leukotriene B4 receptor 1 (Homo sapiens) (UniProt Q15722); assay: Inhibition of LTB4 receptor (unknown origin) at 10 uM
[25] = molecular target: Thromboxane A2 receptor (Homo sapiens, UniProt P21731); assay: Inhibition of prostanoid TP receptor (unknown origin)
[26] = molecular target: Prostaglandin E2 receptor EP4 subtype (Homo sapiens, UniProt P35408); assay: Inhibition of prostanoid EP4 receptor (unknown origin)
[27] = molecular target: Prostaglandin F2-alpha receptor (Homo sapiens, UniProt P43088); assay: Inhibition of prostanoid FP receptor (unknown origin)
[28] = molecular target: Prostaglandin E2 receptor EP3 subtype (Homo sapiens, UniProt P43115); assay: Inhibition of prostanoid EP3 receptor (unknown origin)
[29] = molecular target: Prostacyclin receptor (Homo sapiens, UniProt P43119); assay: Inhibition of prostanoid IP receptor (unknown origin)
[30] = molecular target: Prostaglandin E2 receptor EP2 subtype (Homo sapiens, UniProt P43116); assay: Inhibition of prostanoid EP2 receptor (unknown origin)
[31] = molecular target: Prostaglandin D2 receptor (Homo sapiens, UniProt Q13258); assay: Inhibition of prostanoid DP1 receptor (unknown origin)
[32] = molecular target: Cytochrome P450 2D6 (Homo sapiens, UniProt P10635); assay: Inhibition of human CYP2D6; type: ADME
[33] = molecular target: Cytochrome P450 3A4 (Homo sapiens, UniProt P08684); assay: Inhibition of human CYP3A4; type: ADME
[34] = molecular target: Cytochrome P450 1A2 (Homo sapiens, UniProt P05177); assay: Inhibition of human CYP1A2; type: ADME
[35] = molecular target: Cytochrome P450 2C9 (Homo sapiens, UniProt P11712); assay: Inhibition of human CYP2C9; type: ADME
[36] = molecular target: Cysteinyl leukotriene receptor 1 (Homo sapiens) (UniProt Q9Y271); assay: Inhibition of CysLT1 receptor (unknown origin) at 10 uM
[37] = test system: Mus musculus; assay: Inhibition of FITC hapten-induced ear edema in po dosed Balb/cJBomTac mouse allergic contact dermatitis model after 24 hrs; type: functional
[38] = molecular target: Cysteinyl leukotriene receptor 2 (Homo sapiens) (UniProt Q9NS75); assay: Inhibition of CysLT2 receptor (unknown origin) at 10 uM
[39] = test system: Rattus norvegicus; assay: Inhibition of eosinophil recruitment in bronchoalveolar lavage in po dosed Sprague-Dawley rat allergic disease model; type: functional, organism-based; conditions: Lung
[40] = test system: Rattus norvegicus; assay: Inhibition of eosinophil recruitment in bronchoalveolar lavage in Sprague-Dawley rat allergic disease model at 1 mg/kg, po; type: functional, organism-based; set-up: dose 1 mg/kg; conditions: Lung
[41] = Fraction unbound in Sprague-Dawley rat plasma at 0.1 to 0.3 mg/kg, po; type: ADME, organism-based; set-up: dose 0.1-0.3 mg/kg, route oral
[42] = Inhibition of DK-PGD2-induced IL-13 production in human CD4+ Th2 cells after 6 to 8 hrs; type: functional, cell-based
[43] = Inhibition of DK-PGD2-induced IL-5 production in human CD4+ Th2 cells after 6 to 8 hrs; type: functional, cell-based
[44] = Antagonist activity at CRTh2 receptor in human isolated eosinophil assessed as inhibition of DK-PGD2-induced shape change after 5 mins by flow cytometry

Prostaglandin G/H synthase 1 (Homo sapiens), sequence (P23219 whole entry): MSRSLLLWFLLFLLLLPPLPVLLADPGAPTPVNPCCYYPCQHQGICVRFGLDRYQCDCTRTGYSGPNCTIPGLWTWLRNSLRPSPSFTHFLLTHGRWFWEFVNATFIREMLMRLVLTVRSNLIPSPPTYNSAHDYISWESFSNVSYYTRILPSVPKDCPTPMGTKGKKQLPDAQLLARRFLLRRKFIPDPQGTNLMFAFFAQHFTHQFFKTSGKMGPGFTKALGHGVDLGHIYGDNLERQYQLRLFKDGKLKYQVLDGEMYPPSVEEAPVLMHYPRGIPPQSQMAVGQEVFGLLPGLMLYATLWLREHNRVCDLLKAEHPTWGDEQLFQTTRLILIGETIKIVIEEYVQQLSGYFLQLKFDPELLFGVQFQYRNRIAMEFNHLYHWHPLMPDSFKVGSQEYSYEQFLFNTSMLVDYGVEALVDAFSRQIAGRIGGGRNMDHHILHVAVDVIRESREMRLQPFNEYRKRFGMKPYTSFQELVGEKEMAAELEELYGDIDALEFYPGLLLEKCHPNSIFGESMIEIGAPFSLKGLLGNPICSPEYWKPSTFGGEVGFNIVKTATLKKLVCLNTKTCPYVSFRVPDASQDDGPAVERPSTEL
T3 sequence (Q9Z2J6 whole entry): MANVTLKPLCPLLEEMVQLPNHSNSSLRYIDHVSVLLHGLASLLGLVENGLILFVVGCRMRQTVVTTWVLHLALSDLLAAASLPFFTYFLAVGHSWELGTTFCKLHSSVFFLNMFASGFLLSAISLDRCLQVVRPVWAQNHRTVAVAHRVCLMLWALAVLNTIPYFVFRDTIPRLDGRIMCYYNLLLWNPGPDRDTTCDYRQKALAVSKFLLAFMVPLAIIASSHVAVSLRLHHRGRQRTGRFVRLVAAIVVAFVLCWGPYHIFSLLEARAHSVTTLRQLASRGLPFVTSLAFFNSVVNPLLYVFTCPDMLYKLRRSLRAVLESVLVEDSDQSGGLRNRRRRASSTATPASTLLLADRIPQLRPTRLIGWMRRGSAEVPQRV
Cytochrome P450 1A2, sequence (P05177 whole entry): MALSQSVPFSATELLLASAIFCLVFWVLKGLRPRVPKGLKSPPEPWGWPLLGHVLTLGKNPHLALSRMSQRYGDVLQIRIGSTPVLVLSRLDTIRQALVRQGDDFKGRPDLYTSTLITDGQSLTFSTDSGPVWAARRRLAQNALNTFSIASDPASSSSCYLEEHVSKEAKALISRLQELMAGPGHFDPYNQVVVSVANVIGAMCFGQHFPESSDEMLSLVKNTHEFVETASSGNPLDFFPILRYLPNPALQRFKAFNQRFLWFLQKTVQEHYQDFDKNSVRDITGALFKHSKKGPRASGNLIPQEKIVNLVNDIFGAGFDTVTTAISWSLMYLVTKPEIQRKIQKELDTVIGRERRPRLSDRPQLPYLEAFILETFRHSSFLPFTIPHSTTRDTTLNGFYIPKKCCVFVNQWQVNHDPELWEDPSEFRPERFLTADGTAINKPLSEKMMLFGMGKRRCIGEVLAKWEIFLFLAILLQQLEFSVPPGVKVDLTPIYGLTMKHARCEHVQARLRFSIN
Cysteinyl leukotriene receptor 1 (Homo sapiens), sequence (Q9Y271 whole entry): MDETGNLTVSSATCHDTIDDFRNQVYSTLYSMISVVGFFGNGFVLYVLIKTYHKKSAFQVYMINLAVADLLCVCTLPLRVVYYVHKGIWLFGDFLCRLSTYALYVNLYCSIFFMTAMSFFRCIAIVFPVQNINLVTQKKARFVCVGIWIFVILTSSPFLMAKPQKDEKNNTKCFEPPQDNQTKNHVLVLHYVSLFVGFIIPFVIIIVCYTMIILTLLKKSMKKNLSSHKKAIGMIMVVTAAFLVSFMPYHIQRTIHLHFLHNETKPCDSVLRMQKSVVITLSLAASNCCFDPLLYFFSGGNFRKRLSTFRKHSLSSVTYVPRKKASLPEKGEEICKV
Cytochrome P450 3A4, sequence (P08684 whole entry): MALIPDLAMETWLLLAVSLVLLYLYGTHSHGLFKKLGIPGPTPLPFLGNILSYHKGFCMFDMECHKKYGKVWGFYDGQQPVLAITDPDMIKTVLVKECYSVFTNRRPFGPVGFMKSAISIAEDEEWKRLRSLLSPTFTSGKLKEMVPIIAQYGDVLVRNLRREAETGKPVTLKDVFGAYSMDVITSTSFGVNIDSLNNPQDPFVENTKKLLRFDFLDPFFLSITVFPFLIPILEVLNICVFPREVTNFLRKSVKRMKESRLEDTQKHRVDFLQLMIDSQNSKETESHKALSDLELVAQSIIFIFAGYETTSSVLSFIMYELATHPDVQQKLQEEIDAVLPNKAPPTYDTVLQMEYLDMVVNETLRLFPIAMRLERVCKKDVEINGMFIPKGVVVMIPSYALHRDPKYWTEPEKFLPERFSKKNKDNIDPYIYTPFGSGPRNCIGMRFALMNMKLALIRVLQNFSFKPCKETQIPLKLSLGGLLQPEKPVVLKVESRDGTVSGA
Prostaglandin F2-alpha receptor, sequence (P43088 whole entry): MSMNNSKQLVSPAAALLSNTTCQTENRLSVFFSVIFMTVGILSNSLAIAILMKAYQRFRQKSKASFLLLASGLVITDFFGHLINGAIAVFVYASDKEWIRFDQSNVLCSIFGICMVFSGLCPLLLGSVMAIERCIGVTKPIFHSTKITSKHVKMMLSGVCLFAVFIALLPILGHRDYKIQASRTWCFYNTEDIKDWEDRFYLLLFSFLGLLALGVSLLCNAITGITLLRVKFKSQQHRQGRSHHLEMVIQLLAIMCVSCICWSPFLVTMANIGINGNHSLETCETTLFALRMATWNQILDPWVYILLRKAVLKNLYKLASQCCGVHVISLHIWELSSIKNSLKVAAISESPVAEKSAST
Cytochrome P450 2D6, sequence (P10635 whole entry): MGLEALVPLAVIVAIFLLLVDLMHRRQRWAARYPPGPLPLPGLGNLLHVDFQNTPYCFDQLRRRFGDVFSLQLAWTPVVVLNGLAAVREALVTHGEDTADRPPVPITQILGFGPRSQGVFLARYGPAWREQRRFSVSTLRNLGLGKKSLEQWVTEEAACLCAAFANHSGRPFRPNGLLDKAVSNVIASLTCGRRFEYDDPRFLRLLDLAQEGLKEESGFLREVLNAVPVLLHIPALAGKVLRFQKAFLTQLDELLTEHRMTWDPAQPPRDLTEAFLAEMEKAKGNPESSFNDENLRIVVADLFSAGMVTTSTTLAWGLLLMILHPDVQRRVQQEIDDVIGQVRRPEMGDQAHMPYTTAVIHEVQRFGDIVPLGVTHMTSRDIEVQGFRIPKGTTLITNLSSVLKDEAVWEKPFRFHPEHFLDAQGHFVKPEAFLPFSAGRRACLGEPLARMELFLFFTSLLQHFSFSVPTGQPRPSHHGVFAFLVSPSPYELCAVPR
Prostaglandin E2 receptor EP4 subtype, sequence (P35408 whole entry): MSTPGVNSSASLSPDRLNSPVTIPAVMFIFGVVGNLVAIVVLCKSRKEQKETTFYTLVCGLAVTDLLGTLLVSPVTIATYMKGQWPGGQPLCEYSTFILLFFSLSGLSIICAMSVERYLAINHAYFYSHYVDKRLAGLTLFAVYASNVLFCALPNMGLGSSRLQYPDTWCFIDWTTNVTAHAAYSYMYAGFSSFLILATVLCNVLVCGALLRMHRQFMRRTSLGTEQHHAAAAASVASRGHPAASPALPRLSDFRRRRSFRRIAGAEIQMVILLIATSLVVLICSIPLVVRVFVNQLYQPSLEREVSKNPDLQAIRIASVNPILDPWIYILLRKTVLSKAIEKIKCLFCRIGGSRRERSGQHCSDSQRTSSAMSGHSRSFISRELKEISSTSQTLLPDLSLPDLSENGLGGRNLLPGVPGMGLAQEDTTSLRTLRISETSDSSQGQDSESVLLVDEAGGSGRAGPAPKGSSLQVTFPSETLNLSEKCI
Leukotriene B4 receptor 1 (Homo sapiens), sequence (Q15722 whole entry): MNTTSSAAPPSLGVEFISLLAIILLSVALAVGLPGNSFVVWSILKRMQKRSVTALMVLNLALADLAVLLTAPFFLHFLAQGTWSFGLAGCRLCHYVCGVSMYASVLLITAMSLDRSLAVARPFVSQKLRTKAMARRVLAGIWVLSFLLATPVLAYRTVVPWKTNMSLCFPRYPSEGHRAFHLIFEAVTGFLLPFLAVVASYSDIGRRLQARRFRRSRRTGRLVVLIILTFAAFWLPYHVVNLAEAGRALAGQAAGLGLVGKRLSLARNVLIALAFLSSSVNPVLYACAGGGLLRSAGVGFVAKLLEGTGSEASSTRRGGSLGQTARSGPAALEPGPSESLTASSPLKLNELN
Thromboxane A2 receptor, sequence (P21731 whole entry): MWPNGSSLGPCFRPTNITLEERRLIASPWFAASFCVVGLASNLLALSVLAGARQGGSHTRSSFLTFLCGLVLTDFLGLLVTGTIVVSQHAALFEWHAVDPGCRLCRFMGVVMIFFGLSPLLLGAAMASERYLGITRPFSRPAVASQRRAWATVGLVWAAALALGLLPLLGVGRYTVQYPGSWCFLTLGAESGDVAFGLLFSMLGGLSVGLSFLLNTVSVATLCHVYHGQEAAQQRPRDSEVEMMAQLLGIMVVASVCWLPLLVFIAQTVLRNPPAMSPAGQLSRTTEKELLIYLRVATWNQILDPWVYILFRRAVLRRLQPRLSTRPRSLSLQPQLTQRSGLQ
Prostaglandin E2 receptor EP2 subtype, sequence (P43116 whole entry): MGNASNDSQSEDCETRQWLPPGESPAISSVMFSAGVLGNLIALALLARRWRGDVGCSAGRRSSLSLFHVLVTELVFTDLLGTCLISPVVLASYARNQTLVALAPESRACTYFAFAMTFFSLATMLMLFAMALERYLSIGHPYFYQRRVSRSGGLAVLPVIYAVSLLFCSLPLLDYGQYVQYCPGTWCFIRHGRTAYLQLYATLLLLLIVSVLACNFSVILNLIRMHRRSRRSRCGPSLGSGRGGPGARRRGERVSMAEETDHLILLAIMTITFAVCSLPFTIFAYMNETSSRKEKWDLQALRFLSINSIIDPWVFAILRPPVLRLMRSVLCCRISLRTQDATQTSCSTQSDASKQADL

Cc1c(CC(=O)O)c2cccnc2n1Cc1cccnc1
Ki [1]: 1060 nM

Cc1c(CC(=O)O)c2cccnc2n1S(=O)(=O)c1ccc(F)c(F)c1
fold change (FC) [2]: 1.3

Cc1c(CC(=O)O)c2cccnc2n1Cc1ccc(S(C)(=O)=O)cc1 [QAV680]
IC50 [3]: 94 nM | bioavailability [4]: 35% | Ki [5]: 10 nM | AUC(0-t) at 48 h [6]: 128 µM·h | bioavailability [7]: 54% | AUC(0-t) at 48 h [8]: 6.06 µM·h | Tmax [9]: 39.6 min | Tmax [10]: 39.6 min | Cmax [11]: 2.6 µM | Cmax [12]: 42.7 µM | Vd [13]: 5.5 L/kg | half-life [14]: 1030 min | solubility [15]: 5200 µg/mL (≈ 14.5 mM) | clearance [16]: 15.2 mL/min/kg | Papp A→B [17]: 0.9 ×10⁻⁶ cm/s | Papp B→A [18]: 2.2 ×10⁻⁶ cm/s | fold change (FC) [2]: 3.1 | IC50 [19]: 37 nM | Ki [1]: 36 nM | Cmax [20]: 7.6 µM | inhibition [21]: inactive | inhibition [22]: inactive | inhibition [23]: inactive | inhibition [24]: inactive | IC50 [25]: > 10000 nM | IC50 [26]: > 10000 nM | IC50 [27]: > 10000 nM | IC50 [28]: > 10000 nM | IC50 [29]: > 10000 nM | IC50 [30]: > 10000 nM | IC50 [31]: > 10000 nM | IC50 [32]: > 100000 nM | IC50 [33]: > 100000 nM | IC50 [34]: > 100000 nM | IC50 [35]: > 100000 nM | inhibition [36]: inactive | inhibition [37]: Dose-dependent effect | minimal effective dose ([37]; read-out: MED): 10 mg/kg | inhibition [38]: inactive | Activity [39]: Dose-dependent effect | Activity [40]: Active | fraction unbound [41]: 0.34 | IC50 [42]: 25 nM | IC50 [43]: 59 nM

Cc1c(CC(=O)O)c2cccnc2n1Cc1ccccn1
Ki [1]: 2940 nM

Cc1c(CC(=O)O)c2cccnc2n1Cc1ccc(Cl)cc1
fold change (FC) [2]: 4.1 | IC50 [19]: 484 nM | Ki [1]: 149 nM | inhibition [22]: inactive | inhibition [23]: inactive

Cc1c(CC(=O)O)c2cccnc2n1Cc1ccncc1
Ki [1]: 2230 nM

Cc1c(CC(=O)O)c2cccnc2n1Cc1ccc([S+](C)[O-])cc1 (racemic)
fold change (FC) [2]: 3.1 | IC50 [19]: 233 nM | Ki [1]: 249 nM

Cc1c(CC(=O)O)c2cccnc2n1Cc1ccc([N+](=O)[O-])cc1
fold change (FC) [2]: 4.1

Cc1c(CC(=O)O)c2cccnc2n1Cc1ccccc1Cl
Ki [1]: 624 nM

Cc1c(CC(=O)O)c2cccnc2n1Cc1ccc(S(=O)(=O)C(F)(F)F)cc1
fold change (FC) [2]: 0.9 | IC50 [19]: 147 nM | Ki [1]: 208 nM

Cc1c(CC(=O)O)c2cccnc2n1S(=O)(=O)c1ccc(Cl)cc1
fold change (FC) [2]: 3.8 | IC50 [19]: 565 nM | inhibition [22]: inactive | inhibition [23]: inactive | IC50 [44]: 108 nM

Cc1c(CC(=O)O)c2cccnc2n1Cc1ccc(C#N)cc1
fold change (FC) [2]: 3.6 | IC50 [19]: 554 nM | Ki [1]: 379 nM
